Legend:
[1] = system: U937 cell lines; test: Immunoblot of PARP cleavage and cleaved caspase 3; assay type: cell-based, human; conditions: U937 cell lysates, FIG. 17
Method: FIG. 17. Immunoblot of cell lysates from U937 cell lines treated with Compounds 381, 383, 409 (as test compounds) and Compound 501 (as a negative control) as compared to 8-amino adenosine (8NH2-Ado) and 8-chloro adenosine (8Cl-Ado) (as positive controls). The impact of the compounds on proteins associated with cell death was assessed via performing an immunoblot. (See FIG. 17). PARP cleavage indicated activation of the caspase cascade and cell death by induction of apoptosis. Similarly detection of cleaved caspase 3 indicated activation of caspase activity and cell death by apoptosis. GAPDH was included as a loading control to indicate approximately equal loading of protein.

[2] = system: MM.1S cells; test: MTS CellTiter 96 cell proliferation assay, MM.1S; assay type: cell-based, human
Method: Cell viability was assessed by MTS assay as follows.
The MTS CellTiter 96 assay is a colorimetric method to assess the number of viable cells based on the conversion of a tetrazolium compound (MTS) to a formazan product by the mitochondrial dehydrogenase enzyme of the cells. This assay is used to determine the number of viable cells remaining following a drug treatment in comparison to the number of viable cells that are only treated with the drug vehicle (control cells). The amount of formazan product in the control cells is normalized to 100% and the amount of formazan in the drug treated cells is expressed as a percentage of control. This is used to generate dose response curve and estimate the drug concentration that produced a 50% decrease in the number of viable cells.

Question: For `FC(F)(F)c1cn(CC2CCNCC2)c2ncnc(Cl)c12` [NUCC-0000381], which “induction of apoptosis (PARP cleavage, cleaved caspase 3)” value [1] is on record?
Answer: Its value is “Induction of apoptosis was observed”.

Question: And the decreasing cell proliferation ([2]; 0.1-10 μM, MTS assay, FIG. 1, compared with 8-amino adenosine)?
Answer: Its decreasing cell proliferation is “as effective in decreasing cell proliferation as 8-amine-adenosine”.

Question: And the IC50 ([2]; Homo sapiens, MM1.S, MTS cell proliferation assay, read-out: Estimated IC50)?
Answer: Its IC50 is 600 nM.
